Source: ChEMBL document CHEMBL1201862, “PubChem BioAssay data set” (2004)
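A five-concentration, 48-hour dose response in 96-well plates underlies each endpoint, interpolated linearly between surrounding concentrations. GI50: concentration for 50% inhibition of growth.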 The source made the active and inactive calls. No stated cut-off is given here; in the data, active = GI50 up to about 1.1 µM and inactive = higher.

Legend:
Assay in all cases: NCI anticancer screen, dose series, 48 h
OVCAR-3 = system: OVCAR-3
NCI-H23 = system: NCI-H23
SN12C = system: SN12C
UO-31 = system: UO-31
K562 = system: K562
SR = system: SR
CAKI-1 = system: CAKI-1
M14 = system: M14
HT-29 = system: HT-29
DMS-114 = system: DMS-114
SF-295 = system: SF-295
NCI-H226 = system: NCI-H226
A498 = system: A498
MOLT-4 = system: MOLT-4
SNB-75 = system: SNB-75
SW-620 = system: SW-620
KM12 = system: KM12
EKVX = system: EKVX
SK-OV-3 = system: SK-OV-3
DMS-273 = system: DMS-273
LOX IMVI = system: LOX IMVI
HCC 2998 = system: HCC 2998
HL-60 = system: HL-60
SF-539 = system: SF-539
HCT-15 = system: HCT-15
TK-10 = system: TK-10
SK-MEL-2 = system: SK-MEL-2
UACC-62 = system: UACC-62
KM-20L2 = system: KM-20L2
U-251 = system: U-251
HOP-92 = system: HOP-92
IGROV-1 = system: IGROV-1
M19-MEL = system: M19-MEL
RXF 393 = system: RXF 393
A549 = system: A549
NCI-H522 = system: NCI-H522
COLO 205 = system: COLO 205
SF-268 = system: SF-268
CCRF-CEM = system: CCRF-CEM
NCI-H460 = system: NCI-H460
UACC-257 = system: UACC-257
HOP-18 = system: HOP-18
SNB-78 = system: SNB-78
DLD-1 = system: DLD-1
OVCAR-4 = system: OVCAR-4
SK-MEL-28 = system: SK-MEL-28
HOP-62 = system: HOP-62
ACHN = system: ACHN
LXFL 529 = system: LXFL 529
XF498 = system: XF498
OVCAR-5 = system: OVCAR-5
SK-MEL-5 = system: SK-MEL-5
RPMI-8226 = system: RPMI-8226
SNB-19 = system: SNB-19
HCT-116 = system: HCT-116
Malme-3M = system: Malme-3M
RXF 631 = system: RXF 631
OVCAR-8 = system: OVCAR-8
786-0 = system: 786-0

Measured: GI50

OCCN1CCN(CC/C=C2/c3ccccc3Sc3ccc(Cl)cc32)CC1
13.4 µM: HCT-15
inactive: OVCAR-3 14.7 µM | NCI-H23 15.7 µM | SN12C 13.2 µM | UO-31 13.3 µM | K562 2.56 µM | SR 12.1 µM | CAKI-1 10.5 µM | M14 2.3 µM | HT-29 2.57 µM | DMS-114 16.4 µM | SF-295 18.4 µM | NCI-H226 14.6 µM | A498 14.5 µM | MOLT-4 11.4 µM | SNB-75 3.69 µM | SW-620 12 µM | KM12 9.57 µM | EKVX 16.8 µM | SK-OV-3 15.8 µM | DMS-273 6.05 µM | LOX IMVI 8.81 µM | HCC 2998 11.3 µM | HL-60 1.76 µM | SF-539 12.9 µM | TK-10 15.2 µM | SK-MEL-2 14.9 µM | UACC-62 2.59 µM | KM-20L2 2.07 µM | U-251 12.9 µM | HOP-92 8.45 µM | IGROV-1 15.2 µM | M19-MEL 1.94 µM | RXF 393 13.1 µM | A549 15.6 µM | NCI-H522 16.4 µM | COLO 205 9.73 µM | SF-268 14.6 µM | CCRF-CEM 8.41 µM | NCI-H460 5.93 µM | UACC-257 2.52 µM | HOP-18 1.5 µM | SNB-78 15.8 µM | DLD-1 13.4 µM | OVCAR-4 17.2 µM | SK-MEL-28 1.87 µM | HOP-62 16.1 µM | ACHN 16 µM | LXFL 529 5.74 µM | XF498 12.6 µM | OVCAR-5 17.1 µM | SK-MEL-5 5.89 µM | RPMI-8226 9.82 µM | SNB-19 20.7 µM | HCT-116 8.47 µM | Malme-3M 5.33 µM

CC(=O)O[C@H]1CCC(C)=CCC[C@@]2(C)C(CC[C@@H]2[C@@H](C)/C=C/C(C)C)c2ccc(cc2C(=O)O)C1 (stereo not given in full)
inactive: NCI-H23 2.63 µM | UO-31 2.03 µM | K562 3.21 µM | SR 2.59 µM | M14 5.02 µM | HT-29 3.93 µM | DMS-114 4.49 µM | SF-295 2.9 µM | A498 6.35 µM | MOLT-4 1.92 µM | KM12 2.21 µM | EKVX 11 µM | SK-OV-3 3.6 µM | DMS-273 3.84 µM | HL-60 1.73 µM | TK-10 3.45 µM | UACC-62 1.95 µM | KM-20L2 3.67 µM | RXF 631 7.4 µM | U-251 2.54 µM | HOP-92 2.84 µM | IGROV-1 2.96 µM | M19-MEL 4.18 µM | RXF 393 3.11 µM | OVCAR-8 4.06 µM | NCI-H522 2.49 µM | CCRF-CEM 3.13 µM | NCI-H460 3.12 µM | UACC-257 4.59 µM | SNB-78 3.33 µM | SK-MEL-28 5.05 µM | HOP-62 2.45 µM | ACHN 3.6 µM | OVCAR-5 3.28 µM | SNB-19 3.04 µM | HCT-116 2.94 µM

O=C1c2ccccc2C2CCC1c1ccccc12 (stereo not given)
30.6 µM: HCT-15
inactive: OVCAR-3 30.5 µM | NCI-H23 24 µM | SN12C 43.8 µM | UO-31 21.1 µM | K562 23.6 µM | SR 20.5 µM | CAKI-1 34.8 µM | M14 36.5 µM | HT-29 29.9 µM | DMS-114 19.4 µM | SF-295 33.4 µM | NCI-H226 45.6 µM | A498 58.6 µM | MOLT-4 18 µM | SNB-75 24.5 µM | SW-620 39.2 µM | KM12 31.6 µM | EKVX 43.4 µM | 786-0 38.8 µM | SK-OV-3 41.5 µM | DMS-273 27.4 µM | LOX IMVI 36.3 µM | HCC 2998 53.1 µM | HL-60 15 µM | SF-539 64 µM | TK-10 34.9 µM | SK-MEL-2 32.1 µM | UACC-62 34.6 µM | KM-20L2 32.8 µM | U-251 39.5 µM | HOP-92 20.3 µM | IGROV-1 62.2 µM | M19-MEL 25.6 µM | RXF 393 24.4 µM | OVCAR-8 43.2 µM | A549 25.2 µM | NCI-H522 25 µM | COLO 205 19.2 µM | SF-268 31.1 µM | CCRF-CEM 23.9 µM | NCI-H460 33.3 µM | UACC-257 25.3 µM | HOP-18 73.6 µM | SNB-78 29.9 µM | DLD-1 33.5 µM | OVCAR-4 30.1 µM | SK-MEL-28 32.9 µM | HOP-62 48 µM | ACHN 25.6 µM | LXFL 529 36.3 µM | XF498 29.5 µM | OVCAR-5 > 100 µM | SK-MEL-5 16.3 µM | RPMI-8226 16 µM | SNB-19 65 µM | HCT-116 19.6 µM | Malme-3M 18.3 µM
